According to patent EP0652009A1, “Identification and use of protease inhibitors” (ELI LILLY AND COMPANY, priority 1993, dated 1995):

Molecular target: Cathepsin D (Homo sapiens, UniProt P07339)
Test: Assay 3: cathepsin D inhibition activity (non-cellular assay, chromogenic substrate)
Format: biochemical
Parameters: Frozen human placental tissue was thawed and homogenized; from tissue; host or cells: human placenta
Settings: cathepsin D from human placental tissue; for inhibition at 4 µM: 4 µM test compound, inhibition of initial rate relative to control, read-out: % inhibition at 4µ M; for Ki: chromogenic substrate, pH 3.7, 37°C
Experimental: A third non-cellular assay for determining in vitro aspartyl protease inhibitory activity is generally described in Jupp, R.A. et al., (1990) Biochem. J., 265:871-878 and Rao et al., J. Med. Chem. (1993), in press. The assay is carried out by incubating a test compound with a suitable aspartyl protease, such as cathepsin D, in the presence of a chromogenic substrate. The inhibition constant, Ki, value may then be determined by quantifying the competitive inhibition of the hydrolysis of the chromogenic substrate. A variety of chromogenic substrates that are useful for assaying aspartyl protease activity are discussed in Dunn, et al., (1986) Biochem. J., 237:899-906. A preferred chromogenic substrate for a cathepsin D assay is disclosed in Scarborough, P.E. et al., Protein Science, (1993), 2:264-276.
Concentrations of substrate solutions and cleavage products may be verified using amino acid analysis. The enzyme preparations may be titrated with a tightly binding inhibitor to quantitate the active concentration of the enzyme. Enzyme concentrations are typically in the range of from 1-6 nM. Stock solutions of the test compound are prepared at concentrations ranging from 1.0 to 5.0 mg/mL, and then 50-100 µL portions of these stock solutions may be further diluted to a concentration in the range of 5 to 300 µM for rate determinations.
[…] Then, the test compounds are assayed over a concentration range of, for example, 5 to 300 µM for rate determinations.
A decrease in absorbance in the range of 284-324 nm may be monitored using a spectrophotometer. Absorbance readings are typically taken at various timepoints. The initial velocities are then plotted versus the initial substrate concentration. […] Estimates of Ki may then be determined using the Dixon construction. Dixon, M., (1953) Biochem J., 55:170-171.
If the ratio of the total active enzyme concentration to the estimated Ki value ([E]t/Ki) is less than 0.2, then the precise Ki value may be computed by using a non-linear curve fitting program based on the equation: v= Vmax [S]/[S] + Km (1 + [I]/Ki ) [formula] where v is the initial rate, [S] is the initial substrate concentration, [I] is the inhibitor concentration and Km and Ki are defined above. […] P.J.F., (1972) Biochem J., 127:321-333. This Assay is exemplfied in Assay 3.
The homogenate was centrifuged at 10,000 rpm for 30 minutes in a Sorvall GSA rotor. The supernatant was adjusted to pH 3.7 using 5.7N HCl and then sodium acetate was added to a concentration of 0.1M. The resultant mixture was incubated for 30 minutes at 0°C, resulting in the formation of a precipitate. This precipitate was removed by centrifugation (30 minutes, 10,000 rpm). The acidic supernatent was applied to a chromatography column (pepstatinyl agarose equilibrated with 0.1M sodium acetate, pH 3.5, 0.1% Brij 35, and 1M NaCl), washed until the OD₂₈₀ of the effluent returned to baseline, and then eluted with 50mM Tris-HCl, pH 8.6, 0.1% Brij 35, and 1M NaCl. The eluent was dialyzed against 10mM sodium phosphate, pH 7.0, 0.1% Brij 35, and 0.1M NaCl, and then applied to a 1 mL DEAE-Sephacel column equilibrated with the same buffer. Cathepsin D was recovered in the breakthrough fraction.
The enzyme mixture (125 µL buffer (0.1M sodium formate at pH 3.7), 1 µL of a 1mM solution of test compound, 4 µL of DMSO, enzyme and water to provide a total volume of 230 µL) was vortexed and prewarmed for four minutes before the addition of the chromogenic substrate. After warming, the enzyme mixture was added to 20 µL of a […] dilution of substrate solution. A control reaction mixture was similarly prepared without the addition of the test compound. The percent of inhibition of the initial rate of reaction in the presence of a particular concentration of test compound (i.e. 4 µM) may be determined for the test compound by monitoring the reaction mixture in parallel to the control reaction. […]

Cathepsin D, sequence (P07339 169-412 limits assumed): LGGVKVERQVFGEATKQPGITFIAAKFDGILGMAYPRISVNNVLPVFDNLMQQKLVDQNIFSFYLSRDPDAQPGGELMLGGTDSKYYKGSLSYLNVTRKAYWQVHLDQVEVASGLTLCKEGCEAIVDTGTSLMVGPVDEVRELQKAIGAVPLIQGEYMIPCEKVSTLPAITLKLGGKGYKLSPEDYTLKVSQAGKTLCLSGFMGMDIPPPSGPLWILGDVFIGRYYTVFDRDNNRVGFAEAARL
Cathepsin D, sequence (P07339 65-162 limits assumed): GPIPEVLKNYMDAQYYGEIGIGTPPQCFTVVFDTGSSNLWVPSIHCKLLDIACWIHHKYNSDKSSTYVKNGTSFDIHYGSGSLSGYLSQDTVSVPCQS

Which inhibition at 4 µM does the source give for `CC(C)(C)NC(=O)c1ccccc1C[C@@H](O)[C@H](Cc1ccccc1)NC(=O)[C@@H](CC(=O)O)NS(C)(=O)=O` [Example 31, [2R-(2R*,3S*,6R*)]-N-t-Butyl-2-[2-hydroxy-3-phenylmethyl-4-aza-5-oxo-6-N(methylsulfonyl)amino-7-carboxy]heptyl benzamide] here?
The inhibition at 4 µM was 43%.

With `Cc1ccc2ccc(C(=O)N[C@@H](CC(N)=O)C(=O)N[C@@H](Cc3ccccc3)[C@H](O)Cc3ccccc3C(=O)NC(C)(C)C)nc2c1` [Example 8, [lS-(1R*,4R*,5S*)]-N-(1-(2-amino-2-oxoethyl)-2-oxo-3-aza-4-phenylmethyl-5-hydroxy-6-(2-(1-t-butylamino-1-oxomethyl)phenyl)hexyl)-7-methylquinolin-2-yl carboxamide] as the molecule, how does the Ki read?
The Ki was 1170 nM.

How did the Ki turn out when `CC(C)C(NC(=O)OCc1ccccn1)C(=O)NC(Cc1ccccc1)C(O)C(O)C(Cc1ccccc1)NC(=O)C(NC(=O)OCc1ccccn1)C(C)C` [Example 35, 1,6-Diphenyl-2(S),5(S)-di[N-[2(S)-N(pyrid-2-ylmethoxycarbonyl)amino-3-methylbutanoyl]amino]-3,4-dihydroxyhexane] was run?
The Ki was 86 nM.

`CC(C)(C)NC(=O)c1ccccc1C[C@@H](O)[C@H](Cc1ccccc1)NC(=O)[C@H](Cc1c[nH]cn1)NC(=O)[C@H](Cc1cccc2ccccc12)NC(=O)OC(C)(C)C` [Example 27, [2R-(2R*,3S*,6S*,9S*)]-N-t-Butyl-2-[2-hydroxy-3-phenylmethyl-4,7-diaza-5,8-dioxo-6-(imidazol-4-ylmethyl)-9-N(t-butoxycarbonyl)amino-10-naphth-1-yl]decyl benzamide] was tested. Which inhibition at 4 µM did it give?
The inhibition at 4 µM was 40%.

Which Ki does the source give for `CC(C)(C)NC(=O)c1ccccc1C[C@@H](O)[C@H](Cc1ccccc1)NC(=O)[C@H](CC(=O)NCc1nc2ccccc2[nH]1)NC(=O)c1ccc2ccccc2n1` [Example 18, [1S-(1R*,4R*,5S*)]-N-(1-(2-(N-2-Benzimidazolylmethyl)amino)-2-oxoethyl)-2-oxo-3-aza-4-phenylmethyl-5-hydroxy-6-(2-(1-t-butylamino-1-oxomethyl)phenyl)hexyl)-2-quinolinyl carboxamide] here?
The Ki was 2200 ± 200 nM.

Which Ki does the source give for `CC(C)(C)NC(=O)c1ccccc1CC(O)C(Cc1ccccc1)NC(=O)C(CC(N)=O)NC(=O)C(Cc1cccc2ccccc12)NC(=O)OC(C)(C)C` (stereo not drawn) [Example 25, [2R-(2R*,3S*,6S*,9R*)]-N-t-Butyl-2-[2-hydroxy-3-phenylmethyl-4,7-diaza-5,8-dioxo-6-(2-amino-2-oxoethyl)-9-N(t-butoxycarbonyl)amino-10-naphth-1-yl]decyl benzamide] here?
Its Ki is 1440 ± 260 nM.

For `CC(C)C(NC(=O)OCc1ccccc1)C(=O)NC(Cc1ccccc1)C(O)C(O)C(Cc1ccccc1)NC(=O)C(NC(=O)OCc1ccccc1)C(C)C` [Example 33, 1,6-Diphenyl-2(S),5(S)-di[N-[2(S)-N(benzyloxycarbonyl)amino-3-methyl-butanoyl]amino]-3,4-dihydroxyhexane], which Ki is on record?
The Ki was 23 ± 3 nM.

Which inhibition at 4 µM does the source give for `CC(C)(C)NC(=O)c1ccccc1C[C@@H](O)[C@H](Cc1ccccc1)NC(=O)[C@H](CC(=O)NCc1ccccn1)NC(=O)c1ccc2ccccc2n1` [Example 16, [1S-(1R*,4R*,5S*)]-N-(1-(2-(N-2-Pyridylmethyl)amino)-2-oxoethyl]-2-oxo-3-aza-4-phenylmethyl-5-hydroxy-6-(2-(1-t-butylamino-1-oxomethyl)phenyl)hexyl)-2-quinolinyl carboxamide] here?
The inhibition at 4 µM was 36%.
